Where two headings read alike, the source gives them in different places.
How the values were obtained:
Type in all cases: cell-based
HCV GT 1a replicon = test: HCV replicon assay, stable GT 1a replicon (Renilla luciferase); settings: Hepatitis C virus, GT1A
Protocol: (§1) The activity of compounds was determined against HCV replicons representing genotypes (GT) 1a, 1b, 2a, and 3a. To generate stable Huh-7.5-based cell lines, HCV replicons were engineered to express the Renilla luciferase reporter (hRluc) fused to the neomycin phosphotransferase (Neo) gene. GT2a and GT3a HCV replicons were based on the JFH-1 subgenomic replicon (Kato et al. 2003 Gastroenterology, 125:1808-1817), in which the NS5A gene was replaced with that of strains J6 and S52 (GT2a and G3a, respectively). The activity of compounds against GT1a replicons encoding NS5A mutations (M28T, Q30R, L31M, Y93C, and Y93H) was also determined in a transient replication assay. The parental GT1a and GT2a replicons (pH/SG-Neo(L+I) and pSG-Neo-JFH1, respectively) were licensed from Apath LLC (Saint Louis, Mo.). The parental GT 1b replicon (pFKi389lucubineo_3_3′_ET) was licensed from ReBLikon GmbH (Germany). HCV replicons were constructed by standard molecular biology techniques described below. All replicon constructs were verified by restriction enzyme digestion and DNA sequencing.
pH/SG-Neo(L+I) was modified to add the firefly luciferase reporter gene and additional adaptive mutations by replacing the pH/SG-Neo(L+I) NS3-NS5A coding region with the corresponding sequence of pH77-S, creating pH/SG-lucubineo-H77S as described (Borawski J et al. 2009, J Virol 83: 10058-10074). Subsequently, the firefly luciferase-Neo cassette was replaced with the hRluc-Neo cassette. To create a unique cloning site, the NotI restriction site in NS5B was removed using QuickChange II XL Site-Directed Mutagenesis Kit (Agilent) and the following primers: NotI KO Fwd 5′-CTCAAACTCACTCCAATAGCTGCCGCTGGCCGGCTGGAC-3′(G→T mutation removing NotI site underlined) (SEQ. ID No. 1) and NotI KO Rev 5′-GTCCAGCGGGCCAGCGGCAGCTATTGGAGTGAGTTTGAG-3′(C→A mutation removing NotI site underlined) (SEQ. ID No. 2). The resulting vector, pH/SG-lucubineo-H775-NotIKO, was sequenced to confirm the NS5B gene. The hRluc-Neo cassette was PCR amplified from pF9 cytomegalovirus (CMV) hRluc-Neo Flexi(R) (Promega) using Accuprime Super Mix II (Invitrogen) and the following primers, which introduce restriction sites: […]
The amplification product was subcloned into pCR2.1-TOPO (Invitrogen). The resulting plasmid was digested with AscI and NotI, and the excised hRluc-Neo fragment was ligated using the Promega Rapid Ligation Kit (Promega) into pH/SG-lucubineo-H775-NotIKO digested with the same enzymes.
Stable HCV replicon cell lines were grown in complete media (Dulbecco's modified Eagle medium [DMEM], 2 mM L-glutamine, 0.1 mM essential amino acids, 1 mM sodium pyruvate, 10% heat inactivated fetal bovine serum) with the addition 500 μg/ml […] (G418). Huh7-lunet cells were maintained in the same medium without the addition of G418. Cells were routinely passaged at a dilution of 1:4 two times a week. The assay medium for both luciferase reporter HCV replicon and cytotoxicity assays used phenol red-free DMEM and lacked G418. For each stable replicon assay, a sixteen point half-log dilution series of compound was stamped (0.5 ul compound per well) into three replica 384-well plates, to which cells were added directly (4000 cells/well). For the transient replication assay, Huh7-lunet cells in ice-cold phosphate buffered saline (PBS) were electroporated (BioRad electroporator; 950 uF, 270V) with 10 ug purified in vitro transcribed HCV replicon RNA, followed by resuspension in complete media and plating (8000 cells/well) into compound stamped 384-well plates. Luciferase activity of compound-treated cells was measured relative to DMSO-treated cells after 72 h incubation using RENILLA-GLO™ Luciferase Assay (Promega). Cytotoxicity (CC50) in the GT1b replicon cell line was analyzed using CELL TITER-GLO™ (Promega). […]

HCV GT 2a-J6 replicon = test: HCV replicon assay, GT2a chimeric replicon expressing NS5A from GT2a strain J6; settings: Hepatitis C virus, read-out: EC50 (nM) 2a-J6
Protocol: as §1
(§2) The plasmid pSG-hRlucNeo-JFH1 was generated from pSG-Neo-JFH1 (Kato et al. 2003, Gastroentrology 125:1808-1817). A fragment containing the JFH-1 5′ NTR—hRluc-Neo gene and two unique restriction sites (AgeI and PmeI) was synthesized (Integrated DNA Technologies, Coralville, Iowa). The resulting synthetic plasmid was digested with AgeI and PmeI and the excised fragment (5′NTR-hRluc-Neo) was ligated into pSG-Neo-JFH1 digested with the same enzymes to generate pSG-hRlucNeo-JFH1. To allow expression of heterologous NS5A sequences, an NS5A shuttle vector was generated from pSG-Neo-JFH1, in which the entire coding sequence of NS5A plus the first eight codons of NS5B were replaced with an AfeI restriction site. This was done by Infusion cloning (Clontech, Mountain View, Calif.) from two PCR products that were generated using pSG-Neo-JFH1 as a template and the following primer pairs:
(§3) Underlined sequences denote regions of overlap necessary for Infusion cloning. Purified PCR products were cloned directly into an NsiI/SnaBI digested pSG-Neo-JFH1 following the manufacturer's instructions to generate pSG-Neo-JFH1-5Ashuttle. The 2023 base pair AgeI/PmeI fragment from pSG-hRlucNeo-JFH1 was then ligated into pSG-Neo-JFH1-5Ashuttle to generate pSG-hRlucNeo-JFH1-5Ashuttle. To generate the 2a-2a-(J6) and 2a-3a-(S52) NS5A chimeric replicons, the full length NS5A sequences from GT2a strain J6 (accession AF177036) and GT3a strain S52 (accession GU814263), with the addition of the first eight codons of JFH-1 NS5B (5′-TCCATGTCATACTCCTGGACCGGG-3′), were synthesized by GeneArt (Life Technologies, Carlsbad Calif.). J6 and S52 NS5A sequences were then PCR amplified from the synthetic clones using the appropriate forward primer:
(§4) Underlined sequences denote regions of overlap with pSG-hRlucNeo-JFH1-5Ashuttle necessary for Infusion cloning. Purified PCR products were directly cloned into AfeI-digested shuttle vector by Infusion cloning following the manufacturer's instructions.
(§5) Stable HCV replicon cell lines were grown in complete media (Dulbecco's modified Eagle medium [DMEM], 2 mM L-glutamine, 0.1 mM essential amino acids, 1 mM sodium pyruvate, 10% heat inactivated fetal bovine serum) with the addition 500 μg/ml […] (G418). Huh7-lunet cells were maintained in the same medium without the addition of G418. Cells were routinely passaged at a dilution of 1:4 two times a week. The assay medium for both luciferase reporter HCV replicon and cytotoxicity assays used phenol red-free DMEM and lacked G418. For each stable replicon assay, a sixteen point half-log dilution series of compound was stamped (0.5 ul compound per well) into three replica 384-well plates, to which cells were added directly (4000 cells/well). […]

HCV GT 3a replicon = test: HCV replicon assay, GT2a chimeric replicon expressing NS5A from GT3a strain S52; settings: Hepatitis C virus, read-out: EC50 (nM) 3a
Protocol: as §1, §2, §3, §4, §5

[1] = tested on: GT1a replicon encoding NS5A mutation M28T; test: Transient replication assay, GT1a replicon with NS5A mutation M28T; settings: Hepatitis C virus
[2] = tested on: GT1a replicon encoding NS5A mutation Q30R; test: Transient replication assay, GT1a replicon with NS5A mutation Q30R; settings: Hepatitis C virus
[3] = tested on: GT1a replicon encoding NS5A mutation L31V; test: Transient replication assay, GT1a replicon with NS5A mutation L31V; settings: Hepatitis C virus
[4] = tested on: GT1a replicon encoding NS5A mutation Y93C; test: Transient replication assay, GT1a replicon with NS5A mutation Y93C; settings: Hepatitis C virus
[5] = tested on: GT1a replicon encoding NS5A mutation Y93H; test: Transient replication assay, GT1a replicon with NS5A mutation Y93H; settings: Hepatitis C virus
[6] = comparative table, GT 1a, read-out: EC50 (nM) 1a
[7] = read-out: 1a EC50 (nM) 1a (H77S)

| Compound | EC50 (HCV GT 1a replicon; [6]) [nM] | EC50 (HCV GT 2a-J6 replicon) [nM] | EC50 (HCV GT 3a replicon) [nM] | EC50 ([1]; read-out: EC50 (nM) 1a M28T) [nM] | EC50 ([2]; read-out: EC50 (nM) 1a Q30R) [nM] | EC50 ([3]; read-out: EC50 (nM) 1a L31V) [nM] | EC50 ([4]; read-out: EC50 (nM) 1a Y93C) [nM] | EC50 ([5]; read-out: EC50 (nM) 1a Y93H) [nM] | EC50 (HCV GT 1a replicon; [7]) [nM] | EC50 ([1]; read-out: 1a EC50 (nM) M28T) [nM] | EC50 ([2]; read-out: 1a EC50 (nM) Q30R) [nM] | EC50 ([3]; read-out: 1a EC50 (nM) L31V) [nM] | EC50 ([4]; read-out: 1a EC50 (nM) Y93C) [nM] | EC50 ([5]; read-out: 1a EC50 (nM) Y93H) [nM] |
| --- | --- | --- | --- | --- | --- | --- | --- | --- | --- | --- | --- | --- | --- | --- |
| COC(=O)N[C@H](C(=O)N1C[C@]2(CCCCO2)C[C@H]1c1ncc(-c2ccc(-c3ccc4c(ccc5nc([C@@H]6CCCN6C(=O)[C@@H](NC(=O)OC)C(C)C)[nH]c54)c3)cc2)[nH]1)C(C)C | 0.01 | 27 | 1 | 0.01 | 0.03 | 0.3 | 0.2 | 9 |  |  |  |  |  |  |
| COC(=O)N[C@H](C(=O)N1C[C@@]2(CCCOC2)C[C@H]1c1ncc(-c2ccc(-c3ccc4c(ccc5nc([C@@H]6CCCN6C(=O)[C@@H](NC(=O)OC)C(C)C)[nH]c54)c3)cc2)[nH]1)C(C)C [drawing 235] | 0.01 | 50 | 297 | 0.03 | 0.06 | 0.1 | 0.02 | 1 |  |  |  |  |  |  |
| COC(=O)N[C@H](C(=O)N1C[C@]2(CCOC2)C[C@H]1c1ncc(-c2ccc(-c3ccc4c(ccc5nc([C@@H]6CCCN6C(=O)[C@@H](NC(=O)OC)C(C)C)[nH]c54)c3)cc2)[nH]1)C(C)C [drawing 229] |  |  |  |  |  |  |  |  | 0.02 | 3 | 0.8 | 11 | 0.8 | 42 |
| COC(=O)N[C@H](C(=O)N1C[C@@]2(CCCCO2)C[C@H]1c1ncc(-c2ccc(-c3ccc4c(ccc5nc([C@@H]6CCCN6C(=O)[C@@H](NC(=O)OC)C(C)C)[nH]c54)c3)cc2)[nH]1)C(C)C | 0.15 | 267 | 156 | 6 | 5 | 44 | 0.7 | 6 |  |  |  |  |  |  |
| COC(=O)N[C@H](C(=O)N1C[C@@]2(CCOC2)C[C@H]1c1ncc(-c2ccc(-c3ccc4c(ccc5nc([C@@H]6CCCN6C(=O)[C@@H](NC(=O)OC)C(C)C)[nH]c54)c3)cc2)[nH]1)C(C)C [drawing 230] |  |  |  |  |  |  |  |  | 0.01 | 0.5 | 0.4 | 1 | 0.4 | 7 |
| COC(=O)N[C@H](C(=O)N1C[C@@]2(CCCO2)C[C@H]1c1ncc(-c2ccc(-c3ccc4c(ccc5nc([C@@H]6CCCN6C(=O)[C@@H](NC(=O)OC)C(C)C)[nH]c54)c3)cc2)[nH]1)C(C)C [drawing 231] |  |  |  |  |  |  |  |  | 0.06 | 14 | 3 | 46 | 0.2 | 5 |
| COC(=O)N[C@H](C(=O)N1CC2(CCOCC2)C[C@H]1c1ncc(-c2ccc(-c3ccc4c(ccc5nc([C@@H]6CCCN6C(=O)[C@@H](NC(=O)OC)C(C)C)[nH]c54)c3)cc2)[nH]1)C(C)C [drawing 234] | 0.03 | 32 | 0.7 | 0.9 | 1 | 6 | 1 | 26 |  |  |  |  |  |  |
| COC(=O)N[C@H](C(=O)N1C[C@]2(CCCO2)C[C@H]1c1ncc(-c2ccc(-c3ccc4c(ccc5nc([C@@H]6CCCN6C(=O)[C@@H](NC(=O)OC)C(C)C)[nH]c54)c3)cc2)[nH]1)C(C)C [drawing 228] |  |  |  |  |  |  |  |  | 0.02 | 0.3 | 0.05 | 0.4 | 0.2 | 15 |

Source: patent US10407445B2, “Hepatitis C virus inhibitors” (ENANTA PHARMACEUTICALS, INC., priority 2013, dated 2019)
